Measurements: patent US20200404919A1, “USE OF HETEROARYL-TRIAZOLE AND HETEROARYL-TETRAZOLE COMPOUNDS AS PESTICIDES IN PLANT PROTECTION” (Bayer Aktiengesellschaft, priority 2018, published 2020)

Experiments:
Type in all cases: in vivo
[1] = system: Nezara viridula; test: Nezara viridula - spray test 1; conditions: in Hordeum vulgare, 96 h, read-out: mortality in %
Method in brief: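 Barley plants carrying southern green stink bug larvae were sprayed with compound diluted in water with 1000 ppm emulsifier. Mortality (%) was scored after 4 days.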

[2] = system: Nilaparvata lugens; test: Nilaparvata lugens - spray test 1; conditions: in Oryza sativa, 96 h, read-out: mortality in %, 500 g/ha, rice plants, after 4 days
Method in brief: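 Rice plants (Oryza sativa) were sprayed with the compound preparation in water containing 1000 ppm emulsifier, then infested with brown planthoppers. Percent mortality scored after 4 days (100% = all killed, 0% = none).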

[3] = system: Aphis gossypii; test: Aphis gossypii - oral test; conditions: 120 h, read-out: mortality in %
Method in brief: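 Mixed-population cotton aphids feed through parafilm on compound (acetone stock diluted in water) mixed with IPL41 insect medium containing sugar. Mortality (%) scored after 5 days.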

[4] = system: Diabrotica balteata; test: Diabrotica balteata - spray test; conditions: 168 h, 160 μg/well, germinated wheat seeds, larvae, after 7 days, read-out: efficacy in %
Method in brief: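 Wheat seeds germinated 1 day on agar were sprayed with compound diluted in water with 1000 ppm emulsifier, then infested with 10-20 Diabrotica balteata larvae. Efficacy in % scored after 7 days: 100% = seedlings grown as untreated, uninfected control; 0% = no seedlings grown.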

[5] = system: Phaedon cochleariae; test: Phaedon cochleariae - spray test; conditions: in Brassica rapa, foliar, 168 h, read-out: mortality in %
Method in brief: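 Chinese cabbage leaf disks sprayed with compound diluted in water containing 1000 ppm emulsifier, then infested with mustard beetle larvae once dry. Mortality in % scored after 7 days (100% = all larvae killed, 0% = none).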

[6] = system: Nilaparvata lugens; test: Nilaparvata lugens - spray test 2; conditions: 96 h, rice plants, larvae, after 4 days
Description: Nilaparvata lugens —Spray Test 2
(§1) To produce a suitable preparation of active compound, 1 part by weight of active compound is mixed with the stated amount of solvents and is diluted with water, containing an emulsifier concentration of 1000 ppm, to the desired concentration. Further test concentrations are prepared by dilution with emulsifier containing water. Ammonium salt and/or penetration enhancer in a dosage of 1000 ppm are added to the desired concentration if necessary.
Rice plants (Oryza sativa) are treated by being sprayed with the desired concentration of the active compound and are infested with larvae of the brown planthopper (Nilaparvata lugens).
After 4 days mortality in % is determined. 100% means all planthoppers have been killed and 0% means none of the planthoppers have been killed.

[7] = system: Spodoptera frugiperda; test: Spodoptera frugiperda - spray test; conditions: in Zea mays, 168 h, read-out: mortality in %
Method in brief: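 Maize leaf sections sprayed with compound diluted in water with 1000 ppm emulsifier, then infested with larvae once dry. Mortality (%) scored after 7 days; 100% = all caterpillars killed.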

[8] = system: Myzus persicae; test: Myzus persicae - oral test; conditions: 120 h, read-out: mortality in %
Method in brief: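 Mixed-population green peach aphids fed through parafilm on compound diluted in water plus IPL41 insect medium (33%+15% sugar). Mortality (%) scored after 5 days, 100% meaning all aphids killed.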

[9] = system: Nezara viridula; test: Nezara viridula - spray test 2; conditions: 96 h, barley plants, larvae, after 4 days
Description: Nezara viridula—Spray Test 2
To produce a suitable preparation of active compound, 1 part by weight of active compound is mixed with the stated amount of solvent, and the concentrate is diluted with water, containing an emulsifier concentration of 1000 ppm, to the desired concentration. Ammonium salt and/or penetration enhancer in a dosage of 1000 ppm are added to the desired concentration if necessary.
Barley plants (Hordeum vulgare) infested with larvae of the southern green stink bug (Nezara viridula) are sprayed with a test solution containing the desired concentration of the active ingredient.
After 4 days mortality in % is determined. 100% means all the stink bugs have been killed; 0% means none of the stink bugs have been killed.

[10] = system: Myzus persicae; test: Myzus persicae - spray test; conditions: foliar, 120 h, Chinese cabbage leaf disks, all instars, after 5 days
Description: Myzus persicae—Spray Test
as §1, with “water.” for “water. Ammonium salt and/or penetration enhancer in a dosage of 1000 ppm are added to the desired concentration if necessary.”
Chinese cabbage (Brassica pekinensis) leaf disks infected with all instars of the green peach aphid (Myzus persicae), are sprayed with a preparation of the active ingredient of the desired concentration.
After 5 days mortality in % is determined. 100% means all aphids have been killed and 0% means none of the aphids have been killed.

[11] = system: Anopheles funestus strain FUMOZ-R; test: Anopheles test (ANPHFU surface treatment & contact assay); conditions: 30 minutes exposure, 24 hours after contact, read-out: efficacy (mortality in percent); for mortality at 4 mg/m2: surface concentration 4 mg/m^2, glazed tile; for mortality at 20 mg/m2: surface concentration 20 mg/m^2, glazed tile; for mortality at 100 mg/m2: surface concentration 100 mg/m^2, glazed tile
From the text: Anopheles Test (ANPHFU Surface Treatment & Contact Assay)
Solvent: Acetone+2000 ppm rapeseed oil methyl ester (RME)
In order to produce a sufficient, active ingredient containing solution it is necessary to solve the test-compound in an acetone/RME solvent mixture. This solution is pipetted onto a glazed tile and after evaporation of the acetone, adult mosquitoes of the species Anopheles funestus strain FUMOZ-R (Hunt et al., Med Vet Entomol. 2005 Sep. 19(3):271-5) are placed onto the dried surface. The exposure time is 30 minutes.
Mortality in percent (%) is determined 24 hours after contact to the treated surface. 100% mortality means that all test-insects are dead, whereas 0% means that not a single insect died.

[12] = system: Culex quinquefasciatus; test: Culex test (CULXFAS surface treatment & contact assay); conditions: 30 minutes exposure, 24 hours after contact, read-out: efficacy (mortality in percent); for mortality at 4 mg/m2: surface concentration 4 mg/m^2, glazed tile; for mortality at 20 mg/m2: surface concentration 20 mg/m^2, glazed tile; for mortality at 100 mg/m2: surface concentration 100 mg/m^2, glazed tile
Method in brief: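 Test compound dissolved in acetone + 2000 ppm rapeseed oil methyl ester, applied to glazed tile and acetone evaporated; adult mosquitoes exposed on dried surface for 30 minutes. Mortality (%) scored 24 hours after contact; 100% = all insects dead, 0% = none dead.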

[13] = system: Aedes aegypti strain MONHEIM; test: Aedes test (AEDSAE surface treatment & contact assay); conditions: 30 minutes exposure, 24 hours after contact, read-out: efficacy (mortality in percent); for mortality at 4 mg/m2: surface concentration 4 mg/m^2, glazed tile; for mortality at 20 mg/m2: surface concentration 20 mg/m^2, glazed tile; for mortality at 100 mg/m2: surface concentration 100 mg/m^2, glazed tile
Method in brief: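 Compound in acetone plus 2000 ppm RME applied to glazed tile; after acetone evaporation, adult mosquitoes held on dried surface for 30 minutes. Percent mortality scored 24 hours after contact.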

[14] = system: Meloidogyne incognita; test: Meloidogyne incognita - test; conditions: 336 h, salad seedlings in sand, after 14 days, read-out: nematicidal activity (percentage of gall formation)
Description: Meloidogyne incognita—Test
Solvent: 125.0 parts by weight of acetone
To produce a suitable preparation of active compound, 1 part by weight of active compound is mixed with the stated amount of solvent, and the concentrate is diluted with water to the desired concentration.
Vessels are filled with sand, a solution of the active ingredient, a suspension containing eggs and larvae of the southern root-knot nematode (Meloidogyne incognita) and salad seeds. The salad seeds germinate and the seedlings grow. Galls develop in the roots.
After 14 days the nematicidal activity is determined on the basis of the percentage of gall formation. 100% means no galls were found and 0% means the number of galls found on the roots of the treated plants was equal to that in untreated control plants.

[15] = system: Tetranychus urticae; test: Tetranychus urticae - spray test OP-resistant; conditions: foliar, 144 h, French bean leaf disks, all instars, after 6 days
Description: Tetranychus urticae—Spray Test OP-Resistant
as §1, with “water.” for “water. Ammonium salt and/or penetration enhancer in a dosage of 1000 ppm are added to the desired concentration if necessary.”
French bean (Phaseolus vulgaris) leaf disks infected with all instars of the two spotted spidermite (Tetranychus urticae), are sprayed with a preparation of the active ingredient of the desired concentration.
After 6 days mortality in % is determined. 100% means all spider mites have been killed and 0% means none of the spider mites have been killed.

[16] = system: Musca domestica strain WHO-N; test: Musca domestica test (MUSCDO surface treatment & contact assay); conditions: 30 minutes exposure, 24 hours after contact, read-out: efficacy (mortality in percent)
Method in brief: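 Compound in acetone with 2000 ppm rapeseed oil methyl ester applied to glazed tile; after acetone evaporation, adult Musca domestica WHO-N flies exposed on dried surface for 30 minutes. Mortality (%) assessed 24 hours after contact.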

| Structure (SMILES) | mortality at 500 g/ha [1] | mortality at 500 g/ha [2] | mortality at 100 ppm [3] | pest or weed control at 160 µg/disc, 160 µg/well [4] | mortality at 500 g/ha [5] | mortality at 500 g/ha [7] | mortality at 20 ppm [8] | mortality at 500 g/ha [10] | also measured |
| --- | --- | --- | --- | --- | --- | --- | --- | --- | --- |
| CC(c1ncnn1-c1ncccn1)N(CC1CC1)C(=O)c1cc(Cl)cc(C(F)(F)F)c1 (centres unmarked) [Compound I-40, 3-chloro-N-(cyclopropylmethyl)-N-[1-(2-pyrimidin-2-yl-1,2,4-triazol-3-yl)ethyl]-5-(trifluoromethyl)benzamide] | 100% | 100% | 100% | 100% | 100% | 100% | 100% | 90% | mortality at 500 g/ha [6]: 100%; mortality at 500 g/ha [9]: 100% |
| CC(NC(=O)c1cc(Cl)cc(C(F)(F)F)c1)c1ncnn1-c1ncccn1 (centres unmarked) [Compound I-76] | 100% | 100% | 100% | 100% | 100% | 100% | 100% | – | mortality at 500 g/ha [6]: 100%; mortality at 500 g/ha [9]: 100% |
| C[C@@H](c1ncnn1-c1ncccn1)N(CC1CC1)C(=O)c1cc(Cl)cc(C(F)(F)F)c1 [Compound I-93, 3-chloro-N-(cyclopropylmethyl)-N-[(1S)-1-(2-pyrimidin-2-yl-1,2,4-triazol-3-yl)ethyl]-5-(trifluoromethyl)benzamide] | – | 100% | 100% | 100% | 100% | 100% | 100% | 100% | mortality at 4 mg/m2 [11]: 80 to 100%; mortality at 20 mg/m2 [11]: 80 to 100%; mortality at 100 mg/m2 [11]: 80 to 100%; mortality at 4 mg/m2 [12]: 80 to 100%; mortality at 20 mg/m2 [12]: 80 to 100%; mortality at 100 mg/m2 [12]: 80 to 100%; mortality at 4 mg/m2 [13]: 80 to 100%; mortality at 20 mg/m2 [13]: 80 to 100%; mortality at 100 mg/m2 [13]: 80 to 100%; mortality at 500 g/ha [6]: 100%; pest or weed control at 20 ppm [14]: 100%; mortality at 500 g/ha [9]: 100% |
| CC(c1ncnn1-c1ncccn1)N(CC#N)C(=O)c1cc(Cl)cc(C(F)(F)F)c1 (centres unmarked) [Compound I-96] | 100% | 100% | – | – | – | 100% | – | 90% | mortality at 500 g/ha [15]: 90% |
| C[C@H](NC(=O)c1cc(Cl)cc(C(F)(F)F)c1)c1ncnn1-c1ncccn1 [Compound I-113, 3-chloro-N-[(1S)-1-(2-pyrimidin-2-yl-1,2,4-triazol-3-yl)ethyl]-5-(trifluoromethyl)benzamide] | 100% | 100% | 100% | 100% | 100% | 100% | 100% | – | mortality at 4 mg/m2 [11]: 80 to 100%; mortality at 20 mg/m2 [11]: 80 to 100%; mortality at 100 mg/m2 [11]: 80 to 100%; mortality at 4 mg/m2 [12]: 80 to 100%; mortality at 20 mg/m2 [12]: 80 to 100%; mortality at 100 mg/m2 [12]: 80 to 100%; mortality at 4 mg/m2 ([16]; surface concentration 4 mg/m^2, glazed tile): 80 to 100%; mortality at 20 mg/m2 ([16]; surface concentration 20 mg/m^2, glazed tile): 80 to 100%; mortality at 4 mg/m2 [13]: 80 to 100%; mortality at 20 mg/m2 [13]: 80 to 100%; mortality at 100 mg/m2 [13]: 80 to 100% |
| CC(c1ncnn1-c1ncccn1)N(CC(F)F)C(=O)c1cccc(C(F)(F)F)c1 (centres unmarked) [Compound I-123] | 100% | 100% | – | – | – | 100% | – | 90% | mortality at 500 g/ha [15]: 100% |
| CC(NC(=O)c1cc(Cl)cc(Cl)c1)c1ncnn1-c1ncccn1 (centres unmarked) [Compound I-124] | 100% | 90% | – | – | – | 100% | – | 90% | – |
| CC(NC(=O)c1cc(Cl)cc(Br)c1)c1ncnn1-c1ncccn1 (centres unmarked) [Compound I-125, 3-bromo-5-chloro-N-[1-(2-pyrimidin-2-yl-1,2,4-triazol-3-yl)ethyl]benzamide] | 100% | – | – | 100% | – | 100% | – | 90% | – |
| CC(NC(=O)c1cc(Cl)cc(I)c1)c1ncnn1-c1ncccn1 (centres unmarked) [Compound I-126, 3-chloro-5-iodo-N-[1-(2-pyrimidin-2-yl-1,2,4-triazol-3-yl)ethyl]benzamide] | 100% | – | – | 100% | – | 100% | – | 90% | – |
| C[C@@H](c1ncnn1-c1ncccn1)N(CC(F)F)C(=O)c1cc(Cl)cc(C(F)(F)F)c1 [Compound I-127, 3-chloro-N-(2,2-difluoroethyl)-N-[(1S)-1-(2-pyrimidin-2-yl-1,2,4-triazol-3-yl)ethyl]-5-(trifluoromethyl)benzamide] | 100% | – | – | 100% | – | 100% | – | 100% | – |
| C[C@H](NC(=O)c1cncc(Br)c1)c1ncnn1-c1ncccn1 [Compound I-134] | 100% | 100% | – | 100% | – | – | – | 90% | – |
